Test results taken from patent US20240148835A1, “TREATING DISORDERS ASSOCIATED WITH DYRK1A DYSFUNCTION” (UNIVERSITY OF FLORIDA RESEARCH FOUNDATION, INCORPORATED, priority 2021, published 2024).
Entries after “also recorded” stand apart in the source; their conditions may differ.

System: neonatal cHets
Test: Neonatal GSK3 inhibitor SB216763 treatment: cortex mass, isotropic fractionator cell number and density
Format: in vivo, mouse
Method: We utilized the previously mentioned neonatal paradigm to inject cHets daily with GSK3 inhibitor SB216763 or vehicle from P0 to P7 (FIG. 25A).
(1-3)IGF-1 was acquired from VWR/Bachem (catalog #H-2468.1000) and dissolved in saline with 0.01% BSA fresh every day. Intraperitoneal injections of 10 mg kg′ (1-3)IGF-1 or vehicle were delivered daily at 8 a.m. starting on P14 and ending on P85. […] The S6K1 inhibitor PF-4708671 was acquired from Medkoo Biosciences (#406432) dissolved in 10% DMSO, 10% tween 80 and 80% water. (1-3)IGF-1 (10 mg kg′) and PF-4708671 (50 mg kg^−1) or vehicle were injected subcutaneously into pups from P0 to P7. Rapamycin was acquired from LC laboratories (R-5000) and dissolved in 4% ethanol, 5% tween-80, and 5% PEG400 in PBS. (1-3)IGF-1 (10 mg kg′) and Rapamycin (1 mg kg′) or vehicle were injected subcutaneously into pups from P0 to P7. SB216763 was acquired from TOCRIS (#1616) and dissolved in 5% DMSO and 0.9% saline in dH20. SB216763 (0.5 mg kg′) was injected subcutaneously into pups from P0 to P7.
Adult animals were perfused with 4% PFA, and pups underwent rapid decapitation and dissection. Brains were fixed in 4% PFA for one week, and then the cortex was dissected out and dissociated in a 7 ml glass tissue homogenizer (Kontes Glass) in dissociation buffer (1% Triton X-100 in 40 mM sodium citrate). 1 ml of nuclei was removed and stained with 1:50 DAPI (Invitrogen, catalog #D3571) before being loaded onto a hemocytometer (Fisher Scientific, catalog #0267110). Per animal, 6 technical replicates of 10 μl nuclei were imaged and counted in the hemocytometer (0.1 μl nuclei counted per technical replicate). After calculating the total cell number per cortex, the number of cells was divided by mg of cortex to obtain density.

[1] = 0.5 mg kg subcutaneous daily P0 to P7

Cn1cc(C2=C(c3ccc(Cl)cc3Cl)C(=O)NC2=O)c2ccccc21 [SB216763]
cellular density [1]: no effect on cellular density; also recorded: unaltered by any genotype or treatment | cortex mass of controls [1]: no effect; also recorded: unaltered by treatment | cortical cell number of cHets [1]: restored the decreased cellular number; also recorded: restored by SB216763 treatment | cortical cell number of controls [1]: no effect on SB216763-treated controls | cortex mass of cHets (0.5 mg kg subcutaneous daily P0 to P7, vs vehicle-treated controls): normalized cortex mass; also recorded: restored by treatment with SB216763
